Reference: ChEMBL document CHEMBL2169821, “Design, synthesis, and evaluation of pH-dependent hydrolyzable emetine analogues as treatment for prostate cancer” (J Med Chem, 2012)
Activity calls are given as the source filed them. No cut-off for these calls is given here.

How the values were obtained:
PC-3 [1] = test: Cytotoxicity against human PC3 cells measured on day 3 by MTT assay; type: functional, cell-based
PC-3 [2] = test: Cytotoxicity against human PC3 cells measured on day 5 by MTT assay; type: functional, cell-based
[3] = Chemical stability of the compound in phosphate buffer up to 48 hrs at pH 6.5 by HPLC analysis; type: physicochemical; conditions: pH 6.5, 48 h
[4] = Chemical stability of the compound in phosphate buffer up to 48 hrs at pH 5.5 by HPLC analysis; type: physicochemical; conditions: pH 5.5, 48 h
PC-3 [5] = test: Cytotoxicity against human PC3 cells measured on day 7 by MTT assay; type: functional, cell-based
LNCaP = test: Cytotoxicity against human LNCAP cells measured on day 7 by MTT assay; type: functional, cell-based
Mus musculus [6] = test: Toxicity in Balb/c mouse assessed as adverse effects at 100 mg/kg, iv qd administered as bolus for 5 days measured up to 3 weeks; type: organism-based; parameters: dose 100 mg/kg, route intravenous; conditions: in vivo
Mus musculus [7] = test: Toxicity in Balb/c mouse assessed as change in body weight at 100 mg/kg, iv qd administered as bolus for 5 days measured within 48 hrs relative to control; type: organism-based; parameters: dose 100 mg/kg, route intravenous; conditions: in vivo
Mus musculus [8] = test: Toxicity in Balb/c mouse assessed as adverse effects at 100 mg/kg, iv qd administered as bolus for 5 days; type: organism-based; parameters: dose 100 mg/kg, route intravenous; conditions: in vivo, 120 h
PC-3 [9] = test: Ratio of compound IC50 to emetine IC50 for human PC3 cells measured on day 5 at pH <7 by MTT assay; type: functional
PC-3 [10] = test: Ratio of compound IC50 to emetine IC50 for human PC3 cells measured on day 5 at pH 7.4 by MTT assay; type: functional
[11] = Prodrug activation in phosphate buffer assessed as emetine formation up to 48 hrs at pH 5.5 by HPLC analysis; conditions: pH 5.5, 48 h
[12] = Chemical stability of the compound in phosphate buffer up to 5 days at pH 7.4 by HPLC analysis; type: physicochemical; conditions: for remaining at 120 h: phosphate buffer, pH 7.4, read-out: Stability

Compound | Activity (PC-3 [1]) | Activity (PC-3 [2]) | Stability [3] | Stability [4] | IC50 (PC-3 [5]; Homo sapiens, PC-3, 168 h) [µM] | IC50 (LNCaP; Homo sapiens, LNCaP, 168 h) [µM] | other results
CC[C@H]1CN2CCc3cc(OC)c(OC)cc3[C@@H]2C[C@@H]1C[C@@H]1c2cc(OC)c(OC)cc2CCN1C(=O)/C=C\C(=O)O [listing 1 of 2 here] | Active | Active |  |  |  |  | 
CC[C@H]1CN2CCc3cc(OC)c(OC)cc3[C@@H]2C[C@@H]1C[C@@H]1c2cc(OC)c(OC)cc2CCN1C(=O)OCc1ccccc1 | Active | Active | Stable | Stable | 6.07 | 3.24 | 
CC[C@H]1CN2CCc3cc(OC)c(OC)cc3[C@@H]2C[C@@H]1C[C@@H]1c2cc(OC)c(OC)cc2CCN1C(=O)/C=C(/C)C(=O)O |  | Active |  |  |  |  | 
CC[C@H]1CN2CCc3cc(OC)c(OC)cc3[C@@H]2C[C@@H]1C[C@@H]1c2cc(OC)c(OC)cc2CCN1C(=O)/C=C(/C)C(=O)[O-].[Na+] |  |  |  |  | 0.428 | 0.458 | Activity (Mus musculus [6]): Non-toxic; Activity (Mus musculus [7]): Non-toxic; Activity (Mus musculus [8]): Non-toxic; Ratio IC50 (PC-3 [9]): 2.5; Ratio IC50 (PC-3 [10]): 16.8; Drug metabolism [11]: Active; remaining at 120 h [12]: 100%
CC[C@H]1CN2CCc3cc(OC)c(OC)cc3[C@@H]2C[C@@H]1C[C@@H]1c2cc(OC)c(OC)cc2CCN1C(=O)/C=C(/CC(=O)[O-])C(=O)[O-].[Na+].[Na+] | Active | Active |  |  | 2.89 | 5.46 | Drug metabolism [11]: Active; remaining at 120 h [12]: 100%
CC[C@H]1CN2CCc3cc(OC)c(OC)cc3[C@@H]2C[C@@H]1C[C@@H]1c2cc(OC)c(OC)cc2CCN1S(=O)(=O)c1ccc(OC)cc1 |  | Active | Stable | Stable | 6.08 | 3.15 | 
CC[C@H]1CN2CCc3cc(OC)c(OC)cc3[C@@H]2C[C@@H]1C[C@@H]1c2cc(OC)c(OC)cc2CCN1C(=S)SCc1ccccc1 | Active | Active | Stable | Stable | 1.56 | 1.97 | 
CC[C@H]1CN2CCc3cc(OC)c(OC)cc3[C@@H]2C[C@@H]1C[C@@H]1c2cc(OC)c(OC)cc2CCN1C(=O)NCc1ccccc1 | Active | Active | Stable | Stable | 7.61 | 2.12 | 
CC[C@H]1CN2CCc3cc(OC)c(OC)cc3[C@@H]2C[C@@H]1C[C@@H]1c2cc(OC)c(OC)cc2CCN1C(=S)NCc1ccc(Cl)cc1 | Active | Active | Stable | Stable | 2.86 | 1.59 | 
CC[C@H]1CN2CCc3cc(OC)c(OC)cc3[C@@H]2C[C@@H]1C[C@@H]1c2cc(OC)c(OC)cc2CCN1C(=O)NCc1ccc(OC)cc1 | Active | Active | Stable | Stable | 3.67 | 7.84 | 
CC[C@H]1CN2CCc3cc(OC)c(OC)cc3[C@@H]2C[C@@H]1C[C@@H]1c2cc(OC)c(OC)cc2CCN1C(=O)/C=C\C(=O)O [listing 2 of 2 here] |  |  |  |  |  |  | Drug metabolism [11]: Active; Stability ([12]; buffer, pH 7.4, 120 h): 100%; IC50 (PC-3 [5]; pc-3): 5.04 µM; IC50 (LNCaP; lncap): 6.78 µM
